Series [1] deals with TGFβ/Smads signaling pathway in HEK293-SBE cells. In words: In vitro cell activity inhibition test, Bright-Glo luciferase reporter in HEK293-SBE cells. The class given is cell-based. To be noted: TGFβ 0.5 ng/ml, luciferase reporter gene method. On the procedure: Test Example 3: In vitro cell activity inhibition test
Experimental method: According to the instructions of Bright-Glo™ luciferase detection kit (Promega), the inhibitory effect of the compounds of the present invention on TGFβ/Smads signaling pathway in HEK293-SBE cells was determined. The steps were as follows: HEK293-SBE cells (Bps bioscience) were added to a 96-well plate (10% FBS medium), 30,000/well, and cultured overnight at 37°C and 5% CO2. The medium was changed to 0.5% FBS medium, and the test compound diluted in 0.5% FBS medium was added. The highest final concentration of the test compound was 10 µM with 4-fold dilution, and a total of 8 concentration gradients. After 4-5 hours of incubation, 10 µl of TGFβ was added. The final concentration of TGFβ was 0.5 ng/ml. 10 µl of medium added in replace of TGFβ was the negative control. In the blank control, no test compound was added, and TGFβ was added. Bright Glo reagent was added to each well, and the chemiluminescence signal value was read on a microplate reader.
The percent inhibition rates of the test compound at different concentrations were plotted against the compound concentrations, the curve was fitted according to the four-parameter model, and the IC50 value was calculated by the following formula: y = Min + (Max - Min) / (1 + (x / IC50) ^ (-Hillslope)), wherein: y is percentage inhibition rate; Max and Min are the maximum and minimum values of the fitted curve, respectively; x is the logarithmic concentration of compound; and Hillslope is the slope of the curve.

Series [2] deals with T1, CYP1A2 (Homo sapiens, UniProt P05177).
T1 construct: purchased Promega
T1 sequence (P05177 1-516): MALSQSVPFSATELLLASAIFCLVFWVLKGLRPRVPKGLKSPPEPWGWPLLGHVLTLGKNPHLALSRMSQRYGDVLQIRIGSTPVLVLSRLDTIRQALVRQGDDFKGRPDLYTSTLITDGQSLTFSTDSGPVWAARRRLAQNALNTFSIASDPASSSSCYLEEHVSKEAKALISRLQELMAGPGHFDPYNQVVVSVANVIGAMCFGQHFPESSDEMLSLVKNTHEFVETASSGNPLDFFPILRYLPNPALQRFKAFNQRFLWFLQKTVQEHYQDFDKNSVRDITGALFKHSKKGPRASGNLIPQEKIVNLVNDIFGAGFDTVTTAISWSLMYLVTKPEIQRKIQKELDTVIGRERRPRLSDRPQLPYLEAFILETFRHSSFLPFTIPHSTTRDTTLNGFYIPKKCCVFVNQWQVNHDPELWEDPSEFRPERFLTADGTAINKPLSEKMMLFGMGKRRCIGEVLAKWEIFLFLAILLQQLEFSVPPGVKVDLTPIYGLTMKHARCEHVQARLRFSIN
Kind of series: CYP enzyme inhibition test, P450-Glo CYP1A2 Screening System. The class given is in vitro ADME. The procedure:
Test Example 5: CYP enzyme (Cytocrome P450) inhibition test […] Test system: • P450-Glo™ CYP1A2 Screening System (Promega); • P450-Glo™ CYP2D6 Screening System (Promega); • P450-Glo™ CYP3A4 Screening System (Promega). • 2. Test instrument: BMG PHERAstar FS Luminescent. • 3. Test method: The test was carried out according to the kit instructions, and the steps were as follows: 3.1. Inhibition of CYP1A2: Test group: […] Negative control group: The experimental method was the same as that of the test group, but the test compound was not added. Blank control group: […] The median inhibitory concentration (IC50) or range of the compound was estimated according to the inhibition rate of CYP enzymes at different concentrations: […]

For series [3], the target named is T2, CYP2D6 (Homo sapiens, UniProt P10635).
T2 construct: purchased Promega
T2 sequence (P10635 whole entry): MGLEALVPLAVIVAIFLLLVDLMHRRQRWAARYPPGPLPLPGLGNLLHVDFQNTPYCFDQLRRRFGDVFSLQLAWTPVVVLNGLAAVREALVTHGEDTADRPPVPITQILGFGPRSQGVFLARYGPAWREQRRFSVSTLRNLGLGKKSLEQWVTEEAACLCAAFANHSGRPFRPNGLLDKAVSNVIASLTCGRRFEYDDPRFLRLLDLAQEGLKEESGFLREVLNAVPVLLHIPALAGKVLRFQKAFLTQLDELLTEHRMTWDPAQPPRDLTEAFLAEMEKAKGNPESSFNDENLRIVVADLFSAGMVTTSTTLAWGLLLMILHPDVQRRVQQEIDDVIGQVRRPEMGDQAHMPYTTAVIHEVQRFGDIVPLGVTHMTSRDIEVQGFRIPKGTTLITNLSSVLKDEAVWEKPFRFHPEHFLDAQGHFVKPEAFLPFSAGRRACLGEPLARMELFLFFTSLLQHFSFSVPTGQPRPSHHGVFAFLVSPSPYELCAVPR
Kind of series: CYP enzyme inhibition test, P450-Glo CYP2D6 Screening System. In kind it is in vitro ADME. To be noted: Luciferin-ME EGE 3 µM. On the procedure:
(§1) Test Example 5: CYP enzyme (Cytocrome P450) inhibition test
(§2) • 1. Test system: • P450-Glo™ CYP1A2 Screening System (Promega); • P450-Glo™ CYP2D6 Screening System (Promega); • P450-Glo™ CYP3A4 Screening System (Promega). • 2. Test instrument: BMG PHERAstar FS Luminescent. • 3. Test method: The test was carried out according to the kit instructions, and the steps were as follows: 3.1. Inhibition of CYP1A2:
Test group: The test compound of different concentration was added to the microplate, and Luciferin-ME EGE (3 µM), K3PO4 (100 mM) and CYP2D6 (5 nM) were added to each well, and pre-incubated at room temperature for 10 min, followed by an addition of the NADPH regeneration system, and reacted at 37°C for 30 min, an equal volume of detection buffer was added at last, and incubated at room temperature for 20 min, and then chemiluminescence detection was performed.
(§3) Negative control group: The experimental method was the same as that of the test group, but the test compound was not added.
Blank control group: The experimental method was the same as that of the test group, but the test compound was not added, and CYP2D6 Membrance (5 nM) was used instead of CYP2D6.
(§4) The median inhibitory concentration (IC50) or range of the compound was estimated according to the inhibition rate of CYP enzymes at different concentrations: IC50 = X × (1 - percent inhibition rate (%)) / percent inhibition rate (%), wherein X is the test concentration of the compound.

The target in series [4] is T3, CYP3A4 (Homo sapiens, UniProt P08684).
T3 construct: purchased Promega
T3 sequence (P08684 whole entry): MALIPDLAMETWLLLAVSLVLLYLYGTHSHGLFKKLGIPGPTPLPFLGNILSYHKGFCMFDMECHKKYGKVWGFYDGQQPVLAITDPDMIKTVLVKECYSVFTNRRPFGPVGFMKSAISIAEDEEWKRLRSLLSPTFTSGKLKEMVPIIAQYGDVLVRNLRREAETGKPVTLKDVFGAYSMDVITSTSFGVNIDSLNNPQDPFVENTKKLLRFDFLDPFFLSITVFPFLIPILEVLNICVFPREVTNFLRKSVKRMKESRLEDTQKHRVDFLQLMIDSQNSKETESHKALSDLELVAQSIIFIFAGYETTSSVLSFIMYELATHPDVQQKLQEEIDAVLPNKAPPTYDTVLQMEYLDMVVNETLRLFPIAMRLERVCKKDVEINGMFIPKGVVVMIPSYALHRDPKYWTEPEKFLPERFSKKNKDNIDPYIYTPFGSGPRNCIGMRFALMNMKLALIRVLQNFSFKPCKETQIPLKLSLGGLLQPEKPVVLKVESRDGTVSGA
In words: CYP enzyme inhibition test, P450-Glo CYP3A4 Screening System. In kind it is in vitro ADME. Conditions: Luciferin-IPA 3 µM. On the procedure: as §1, §2
Test group: The test compound of different concentration was added to the microplate, Luciferin-IPA (3 µM), K3PO4 (100 mM) and CYP3A4 (2 nM) were added to each well, and pre-incubated at room temperature for 10 min, followed by an addition of the NADPH regeneration system, and reacted at room temperature for 30 min, an equal volume of detection buffer was added at last, and incubated at room temperature for 20 min, and then chemiluminescence detection was performed.
as §3
Blank control group: The experimental method was the same as that of the test group, but the test compound was not added, and CYP3A4 Membrance (2 nM) was used instead of CYP3A4.
as §4

Where [5] appears, read: Luciferin-ME 100 µM, read-out: IC50 (µM) CYP1A2.

Like-named read-outs stand apart in the source and are kept apart here.

As a reminder, the IC50 is the concentration that inhibits the measured activity by half.

`Cc1cccc(-n2nc3c(c2-c2ccn4nccc4c2)CCC3)n1` [Example 4, 5-[2-(6-methylpyridin-2-yl)-2,4,5,6-tetrahydrocyclopenteno [c]pyrazol-3-yl]pyrazolo[1,5-a]pyridine]: the IC50 is 0.035 ± 0.00269 µM in series [1], > 10 µM in series [2], > 10 µM in series [3] and > 10 µM in series [4].

Take `Cc1cccc(-n2nc3c(c2-c2ccn4ncc(C(N)=O)c4c2)CCC3)n1` [Example 6, 5-[2-(6-methylpyridin-2-yl)-2,4,5,6-tetrahydrocyclopenteno[c]pyrazol-3-yl]pyrazolo[1,5-a]pyridine-3-carboxamide]: the IC50 was 0.0201 ± 0.001 µM in series [1]; > 10 µM in series [2] (Luciferin-ME 100 µM, 30 min, read-out: IC50 (µM) CYP1A2); > 10 µM in series [3] (30 min); > 10 µM in series [4] (30 min).

Take `CNc1cc(-c2ccn3ncc(C(N)=O)c3c2)n(-c2cccc(C)n2)n1` [Example 8, 5-(3-(methylamino)-1-(6-methylpyridin-2-yl)-1H-pyrazol-5-yl)pyrazolo[1,5-a]pyridine-3-carboxamide]: the IC50 is 0.0299 ± 0.00127 µM in series [1], > 10 µM in series [2] (setting [5]), > 10 µM in series [3] and > 10 µM in series [4].

Turning to `Cc1cccc(-n2nc(NC(C)c3ccc(F)cc3)cc2-c2ccn3ncc(C(N)=O)c3c2)n1` (stereo not drawn) [Example 10, 5-(3-(1-(4-fluorophenyl)ethylamino)-1-(6-methylpyridin-2-yl)-1H-pyrazol-5-yl)pyridino[1,5-a]pyridine-3-carboxamide], the half-inhibitory concentration (IC50) in series [1] is 0.0431 ± 0.00419 µM; in series [2], > 10 µM; in series [3], > 10 µM; in series [4] it was > 10 µM.

As for `Cc1cccc(-n2nc(NCc3ccc(F)cc3)cc2-c2ccn3ncc(C(N)=O)c3c2)n1` [Example 11, 5-(3-(4-fluorobenzylamino)-1-(6-methylpyridin-2-yl)-1H-pyrazol-5-yl)pyrazolo[1,5-a]pyridine-3-carboxamide], the 50% inhibitory concentration (IC50) in series [1] is 0.0194 ± 0.00152 µM; in series [2] (setting [5]) it was > 10 µM; in series [3] it was > 10 µM; in series [4] it was > 10 µM.

Regarding `Cc1cccc(-n2nccc2-c2ccn3ncc(C(N)=O)c3c2)n1` [Example 12, 5-(1-(6-methylpyridin-2-yl)-1H-pyrazol-5-yl)pyrazolo[1,5-a]pyridine-3-carboxamide], the half-maximal inhibitory concentration (IC50) in series [1] was 0.0266 ± 0.00543 µM; in series [2] (setting [5]), > 10 µM; in series [3], > 10 µM; in series [4], > 10 µM.

Values taken from patent publication EP4219453A1 (Sichuan Kelun-Biotech Biopharmaceutical Co., Ltd., priority 2020, dated 2022).
